From patent US11584714B2 (priority 2018, dated 2023)
Where a name gives a salt, the structure may show the parent alone. Read-outs that look alike come from different tables or passages of the source.

What was measured:
Assay type in all cases: biochemical
mMASP-2 = mMASP-2 (Mus musculus (Mouse), UniProt Q91WP0); assay: Enzymatic inhibition of mMASP-2; conditions: read-out: mMASP-2 Ki
MASP-2 (CCP1-CCP2-SP) = MASP-2 (CCP1-CCP2-SP) (Homo sapiens (Human), UniProt O00187); assay: biochemical; conditions: for MASP-2 vs. thrombin selectivity: selectivity for MASP-2 inhibition versus thrombin
MASP-2 (CCP1-CCP2-SP), sequence (O00187 445-686): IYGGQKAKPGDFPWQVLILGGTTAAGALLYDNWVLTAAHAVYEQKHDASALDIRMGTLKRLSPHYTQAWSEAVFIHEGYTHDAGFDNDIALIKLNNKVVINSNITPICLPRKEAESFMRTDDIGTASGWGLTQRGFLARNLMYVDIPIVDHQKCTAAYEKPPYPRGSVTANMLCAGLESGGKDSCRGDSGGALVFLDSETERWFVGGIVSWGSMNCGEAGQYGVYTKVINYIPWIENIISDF

human α-thrombin = human α-thrombin (Homo sapiens (Human), UniProt P00734); assay: Enzymatic assay for thrombin (Boc-VPR-AMC substrate)

mMASP-2, sequence (Q91WP0 20-685): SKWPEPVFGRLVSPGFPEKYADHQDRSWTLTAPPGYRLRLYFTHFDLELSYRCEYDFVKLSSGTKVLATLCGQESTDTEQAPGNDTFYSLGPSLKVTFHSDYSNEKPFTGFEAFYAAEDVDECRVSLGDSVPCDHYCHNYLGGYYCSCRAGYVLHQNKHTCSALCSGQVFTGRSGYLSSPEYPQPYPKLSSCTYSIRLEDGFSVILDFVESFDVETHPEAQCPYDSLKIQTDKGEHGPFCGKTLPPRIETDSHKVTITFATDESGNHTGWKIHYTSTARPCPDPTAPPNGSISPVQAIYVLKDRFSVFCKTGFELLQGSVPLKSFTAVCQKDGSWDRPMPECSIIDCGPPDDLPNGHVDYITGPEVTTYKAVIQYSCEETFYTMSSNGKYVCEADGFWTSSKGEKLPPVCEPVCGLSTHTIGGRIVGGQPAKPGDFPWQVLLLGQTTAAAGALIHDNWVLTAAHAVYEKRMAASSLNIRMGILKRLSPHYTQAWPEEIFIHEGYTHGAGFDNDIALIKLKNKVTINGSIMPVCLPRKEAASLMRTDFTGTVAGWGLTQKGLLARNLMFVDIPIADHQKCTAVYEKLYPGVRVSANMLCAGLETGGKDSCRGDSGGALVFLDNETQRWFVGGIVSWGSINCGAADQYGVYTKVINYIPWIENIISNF

Row | SMILES | Ki (mMASP-2) | Ki (MASP-2 (CCP1-CCP2-SP); read-out: MASP-2 Ki) | MASP-2 vs. thrombin selectivity (MASP-2 (CCP1-CCP2-SP)) | Ki (human α-thrombin; read-out: Thrombin Ki) | Ki (human α-thrombin; Thrombin Ki (μM)) | Ki (MASP-2 (CCP1-CCP2-SP))
1 | C[C@H](NC(=O)[C@H]1C[C@H](Cc2ccccc2)CN1)C(=O)NCc1cc(Cl)cc(Cl)c1O [compound 1448, (2R,4S)-4-benzyl-N-((S)-1-((3,5-dichloro-2-hydroxybenzyl)amino)-1-oxopropan-2-yl)pyrrolidine-2-carboxamide, hydrochloride] | 2500 to 10000 nM | < 500 nM | **** (≥100-fold) | > 25 µM |  | 
2 | C[C@H](NC(=O)[C@H]1C[C@H](c2ccccc2)CN1)C(=O)NCc1cnc2c(c1)c(Cl)cn2C [compound 1442, (2R,4R)—N—((S)-1-(((3-Chloro-1-methyl-1H-pyrrolo[2,3-b]pyridin-5-yl)methyl)amino)-1-oxopropan-2-yl)-4-phenylpyrrolidine-2-carboxamide Dihydrochloride] | < 500 nM | < 500 nM |  | > 25 µM |  | 
3 | C[C@H](NC(=O)[C@@H](CCc1ccccc1)NCCCc1cccc(O)c1)C(=O)NCc1ccc(C(=N)N)cc1 [compound 1312, (R)—N—((S)-1-((4-Carbamimidoylbenzyl)amino)-1-oxopropan-2-yl)-2-((3-(3-hydroxyphenyl)propyl)amino)-4-phenylbutanamide Di-trifluoroacetate salt] | < 500 nM | < 500 nM | * (≥1.0 to <5.0-fold) | < 0.5 µM |  | 
4 | Cc1nc(N)ccc1CNC(=O)[C@H](C)NC(=O)[C@H]1C[C@H](Cc2cc(Br)no2)CN1 [compound 1421, (2R,4R)—N—((S)-1-(((6-Amino-2-methylpyridin-3-yl)methyl)amino)-1-oxopropan-2-yl)-4-((3-bromoisoxazol-5-yl)methyl)pyrrolidine-2-carboxamide Di-trifluoroacetate salt] | 500 to 2500 nM | < 500 nM | **** (≥100-fold) |  | 10 to 25 µM | 
5 | CC(C)COC(=O)NC(=N)c1ccc(CNC(=O)[C@H](C)NC(=O)[C@H]2C[C@H](c3ccccc3)CN2)cc1 [compound 1293, Isobutyl (imino(4-(((S)-2-((2R,4R)-4-phenylpyrrolidine-2-carboxamido)propanamido)methyl)phenyl)methyl)carbamate] | 2500 to 10000 nM |  | * (≥1.0 to <5.0-fold) | > 25 µM |  | 2500 to 10000 nM
6 | Cc1nc(N)ccc1CNC(=O)[C@H](C)NC(=O)[C@H]1C[C@H](Cc2cccc(C(F)(F)F)c2)C(=O)N1 [compound 1320, (2R,4S)—N—((S)-1-(((6-Amino-2-methylpyridin-3-yl)methyl)amino)-1-oxopropan-2-yl)-5-oxo-4-(3-(trifluoromethyl)benzyl)pyrrolidine-2-carboxamide Di-trifluoroacetate salt] | 500 to 2500 nM | < 500 nM | ** (≥5.0 to <25-fold) |  | 0.5 to 2.5 µM | 
7 | Cc1nc(N)ccc1CNC(=O)[C@H](C)NC(=O)[C@H]1C[C@@H](CCc2ccccc2)CN1 [compound 1322, (2R,4R)—N—((S)-1-(((6-Amino-2-methylpyridin-3-yl)methyl)amino)-1-oxopropan-2-yl)-4-phenethylpyrrolidine-2-carboxamide Dihydrochloride] | 500 to 2500 nM | < 500 nM | *** (≥25 to <100-fold) |  | 10 to 25 µM | 
8 | C[C@H](NC(=O)[C@H]1C[C@H](c2ccccc2)CN1)C(=O)NCc1ccc2[nH]cc(Cl)c2c1 [compound 1362, (2R,4R)—N—((S)-1-(((3-Chloro-1H-indol-5-yl)methyl)amino)-1-oxopropan-2-yl)-4-phenylpyrrolidine-2-carboxamide] | 500 to 2500 nM |  | * (≥1.0 to <5.0-fold) |  | 0.5 to 2.5 µM | 500 to 2500 nM
9 | C[C@H](NC(=O)[C@H]1C[C@H](c2ccccc2)CN1)C(=O)NCc1cc(Cl)cc(C#N)c1 [compound 1386, (2R,4R)—N—((S)-1-((3-Chloro-5-cyanobenzyl)amino)-1-oxopropan-2-yl)-4-phenylpyrrolidine-2-carboxamide Trifluoroacetate salt] | > 25000 nM |  |  | > 25 µM |  | 10000 to 25000 nM
10 | Cc1nc(N)ccc1CNC(=O)[C@H](C)NC(=O)[C@H](N)CCc1ccccc1 [compound 1245, (R)-2-Amino-N—((S)-1-(((6-amino-2-methylpyridin-3-yl)methyl)amino)-1-oxopropan-2-yl)-4-phenylbutanamide] | 10000 to 25000 nM | < 500 nM | **** (≥100-fold) |  | 10 to 25 µM | 
11 | Cc1nc(N)ccc1CNC(=O)[C@H](C)NC(=O)[C@H]1C[C@H](Cc2cc(-c3ccccc3)cs2)CN1 [compound 1399, (2R,4R)—N—((S)-1-(((6-Amino-2-methylpyridin-3-yl)methyl)amino)-1-oxopropan-2-yl)-4-((4-phenylthiophen-2-yl)methyl)pyrrolidine-2-carboxamide Dihydrochloride] | < 500 nM | < 500 nM | **** (≥100-fold) |  | 10 to 25 µM | 
12 | C[C@H](NC(=O)[C@H]1C[C@H](c2ccccc2)CN1)C(=O)NCc1ccc(C(=N)N)nc1 [compound 1272, (2R,4R)—N—((S)-1-(((6-Carbamimidoylpyridin-3-yl)methyl)amino)-1-oxopropan-2-yl)-4-phenylpyrrolidine-2-carboxamide] | < 500 nM | < 500 nM | *** (≥25 to <100-fold) |  | 0.5 to 2.5 µM | 
13 | CC(C)c1cccc([C@H]2CN[C@@H](C(=O)N[C@@H](C)C(=O)NCc3ccc(C(=N)N)cc3)C2)c1 [compound 1316, (2R,4S)—N—((S)-1-((4-Carbamimidoylbenzyl)amino)-1-oxopropan-2-yl)-4-(3-isopropylphenyl)pyrrolidine-2-carboxamide Dihydrochloride] | < 500 nM | < 500 nM | *** (≥25 to <100-fold) |  | 0.5 to 2.5 µM | 
14 | Cc1nc(N)ccc1CNC(=O)[C@H](C)NC(=O)[C@H]1C[C@H](Cc2ccc(C3CCC3)cc2)CN1 [compound 1379, (2R,4S)—N—((S)-1-(((6-Amino-2-methylpyridin-3-yl)methyl)amino)-1-oxopropan-2-yl)-4-(4-cyclobutylbenzyl)pyrrolidine-2-carboxamide Di-trifluoroacetate salt] | < 500 nM | < 500 nM | **** (≥100-fold) | > 25 µM |  | 
15 | Cc1nc(N)ccc1CNC(=O)[C@H](C)NC(=O)[C@@H]1C[C@H](Cc2ccccc2)CCN1 [compound 1354, (2S,4R)—N—((S)-1-(((6-Amino-2-methylpyridin-3-yl)methyl)amino)-1-oxopropan-2-yl)-4-benzylpiperidine-2-carboxamide Dihydrochloride] | 500 to 2500 nM | < 500 nM | *** (≥25 to <100-fold) |  | 2.5 to 10 µM | 
16 | C[C@H](NC(=O)[C@H]1C[C@H](c2ccccc2)CN1)C(=O)NCc1cc(Cl)ccc1O [compound 1242, (2R,4R)—N—((S)-1-((5-Chloro-2-hydroxybenzyl)amino)-1-oxopropan-2-yl)-4-phenylpyrrolidine-2-carboxamide] | 2500 to 10000 nM |  | ** (≥5.0 to <25-fold) |  | 2.5 to 10 µM | 500 to 2500 nM
17 | C[C@H](NC(=O)[C@H]1C[C@H](Cc2ccccc2Br)CN1)C(=O)NCc1cnc2c(c1)c(Cl)cn2C [compound 1482, (2R,4S)-4-(2-bromobenzyl)-N-((S)-1-(((3-chloro-1-methyl-1H-pyrrolo[2,3-b]pyridin-5-yl)methyl)amino)-1-oxopropan-2-yl)pyrrolidine-2-carboxamide Hydrochloride] | < 500 nM | < 500 nM | *** (≥25 to <100-fold) |  | 0.5 to 2.5 µM | 
18 | Cc1nc(N)ccc1CNC(=O)[C@H](C)NC(=O)[C@H]1C[C@H](c2ccccc2)CCN1 [compound 1308, (2R,4R)—N—((S)-1-(((6-Amino-2-methylpyridin-3-yl)methyl)amino)-1-oxopropan-2-yl)-4-phenylpiperidine-2-carboxamide Dihydrochloride] | 500 to 2500 nM |  | ** (≥5.0 to <25-fold) |  | 10 to 25 µM | 500 to 2500 nM
19 | Cc1nc(N)ccc1CNC(=O)[C@H](C)NC(=O)[C@H]1C[C@H](Cc2ccc(F)c(Cl)c2)CN1 [compound 1459, (2R,4S)—N—((S)-1-(((6-Amino-2-methylpyridin-3-yl)methyl)amino)-1-oxopropan-2-yl)-4-(3-chloro-4-fluorobenzyl)pyrrolidine-2-carboxamide Di-trifluoroacetate salt] | < 500 nM | < 500 nM | **** (≥100-fold) |  | 2.5 to 10 µM | 
20 | Cc1nc(N)ccc1CNC(=O)[C@H](C)NC(=O)[C@H]1C[C@@H](Cc2ccccc2)CN1 [compound 1283, (2R,4R)—N—((S)-1-(((6-Amino-2-methylpyridin-3-yl)methyl)amino)-1-oxopropan-2-yl)-4-benzylpyrrolidine-2-carboxamide] | 500 to 2500 nM | < 500 nM | *** (≥25 to <100-fold) |  | 2.5 to 10 µM | 
21 | N=C(N)c1ccc(CNC(=O)[C@H](CCC(N)=O)NC(=O)[C@H](N)CCc2ccccc2)cc1 [compound 1335, (S)-2-((R)-2-Amino-4-phenylbutanamido)-N-(4-carbamimidoylbenzyl)pentanediamide Di-trifluoroacetate] | < 500 nM | < 500 nM | *** (≥25 to <100-fold) |  | 2.5 to 10 µM | 
22 | Cc1nc(N)ccc1CNC(=O)[C@H](C)NC(=O)[C@H]1C[C@H](Cc2ccc(Br)c(Cl)c2)CN1 [compound 1466, (2R,4S)—N—((S)-1-(((6-Amino-2-methylpyridin-3-yl)methyl)amino)-1-oxopropan-2-yl)-4-(4-bromo-3-chlorobenzyl)pyrrolidine-2-carboxamide Di-trifluoroacetate salt] | < 500 nM | < 500 nM | **** (≥100-fold) |  | 10 to 25 µM | 
